From patent publication US20100016290A1, “AMORPHOUS POLYMORPH OF BAZEDOXIFENE ACETATE” (priority 2008, published 2010) come the findings set out here.

Data set [1] can be described thus: Mortar and pestle trials of Form A under mechanical stress (DSC, XRPD). It counts as physicochemical. The following applies: for decrease in the Enthalpy of Fusion (Form A): after 10 min mixing in reaction solvent. On the procedure: Mortar and pestle trials were conducted to test the behavior of polymorph Form A under mechanical stress and to test and measure the kinetics of conversion of crystalline Form A to Form B under mechanical stress (possibly via amorphous Form C).

The nature of data set [2]: Form C on ATR-IR sensor in ethanol vapor atmosphere. Particulars: room temperature. The data set is classed as physicochemical. From the text: IR spectra (see, e.g. FIG. 2) were acquired by placing a few milligrams of the powder of the sample on a diamond sensor ATR (Attenuated Total Reflection) probe (Dicomp) using a React-IR 4000 system operated at 4 cm^−1 resolution and 128 scans between 650-4000 cm^−1.
Some experiments were executed by creating an ethanol vapor atmosphere around the ATR sensor at room temperature.

Turning to `CC(=O)O.Cc1c(-c2ccc(O)cc2)n(Cc2ccc(OCCN3CCCCCC3)cc2)c2ccc(O)cc12` [Sample 7], the “decrease in the Enthalpy of Fusion (Form A)” value in data set [1] is reported as “About 30%”.

As to `Cc1c(-c2ccc(O)cc2)n(Cc2ccc(OCCN3CCCCCC3)cc2)c2ccc(O)cc12` [Form C, 1-[4-(2-azepan-1-yl-ethoxy)-benzyl]-2-(4-hydroxy-phenyl)-3-methyl-1H-indol-5-ol acetic acid], in data set [2] (after two hours), the polymorph form present entry is listed as “only polymorph Form B was present”. The “transformation of polymorph form” value in data set [2] (on ATR sensor) is given as “transform rapidly into polymorph Form B”.

As for `CC(=O)O.Cc1c(-c2ccc(O)cc2)n(Cc2ccc(OCCN3CCCCCC3)cc2)c2ccc(O)cc12` [Sample 8], the “decrease in the Enthalpy of Fusion (Form A)” value in data set [1] is reported as “About 50%”. For the same compound, the “amorphous Form C formed under mechanical stress” value in data set [1] (confirmed by powder XRD (FIG. 5)) is listed as “significant amount of amorphous Form C”.
